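Five compound concentrations were applied to cells in 96-well plates for 48 hours; endpoints were derived by simple linear interpolation of the resulting dose-response curve. TGI: concentration producing complete growth inhibition.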
Experiments:
Assay in all cases: NCI-60 cell line screen, 48 h
[1] = test system: U251 CNS
[2] = test system: NCI-H460 lung
[3] = test system: M14 melanoma
[4] = test system: SF-539 CNS
[5] = test system: BT-549 breast
[6] = test system: RPMI-8226 leukemia
[7] = test system: TK-10 renal
[8] = test system: K-562 leukemia
[9] = test system: HCC-2998 colon
[10] = test system: CCRF-CEM leukemia

SMILES | TGI [1] [µM] | TGI [2] [µM] | TGI [3] [µM] | TGI [4] [µM] | TGI [5] [µM] | TGI [6] [µM] | TGI [7] [µM] | TGI [8] [µM] | TGI [9] [µM] | TGI [10] [µM]
CC(NC(=O)Cc1ccccc1)NC(=O)C(C)C(=O)Nc1ccccc1 (centres undefined) | > 100 | > 100 | > 100 | > 100 | > 100 | > 100 | > 100 | > 100 | – | –
CC(c1ccccc1)N1CCN(C(C)c2ccccc2)CC1 (centres undefined) | > 100 | > 100 | 53 | – | > 100 | > 100 | > 100 | > 100 | 44.6 | –
Nc1ccc(N=Nc2c(S(=O)(=O)O)cc3ccccc3c2S(=O)(=O)O)cc1 | > 100 | > 100 | > 100 | – | > 100 | – | > 100 | > 100 | > 100 | > 100
COc1ccc(C2c3cn[nH]c3CC3CCCCC32)cc1 (centres undefined) | 28.9 | 30.8 | 36.6 | – | 33.5 | 73.2 | 37.1 | 98.6 | 35 | 53.9
COC(=O)C(=Cc1cc(OC)c(OC)c(OC)c1-c1cc2c(cc1C1(C)OCCS1)OCO2)C(=O)OC (centres undefined) | > 100 | > 100 | – | > 100 | – | > 100 | > 100 | > 100 | > 100 | > 100
CCCCCC#CCOC(=O)C(=[N+]=[N-])P(=O)(c1ccccc1)c1ccccc1 | > 10 | > 10 | > 10 | > 10 | > 10 | > 10 | > 10 | > 10 | > 10 | –
O=C(O)CN1CCN2CCCCCN(CC1)CCN(CC(=O)O)CC2 | > 100 | > 100 | > 100 | > 100 | > 100 | > 100 | > 100 | > 100 | – | > 100
O=C1NC2c3c(I)sc(I)c3C(O)C2O1 (centres undefined) | > 100 | > 100 | > 100 | > 100 | – | > 100 | > 100 | > 100 | > 100 | > 100
CCCNc1ncnc2c1ncn2C | > 100 | – | > 100 | > 100 | – | > 100 | > 100 | > 100 | > 100 | > 100
S=C1NC2=C(CSC/C2=C\c2cccc(Br)c2)C(c2cccc(Br)c2)N1 (centres undefined) | > 100 | > 100 | > 100 | > 100 | – | > 100 | > 100 | > 100 | > 100 | > 100
Cc1nn(-c2ccccc2)c2c1C(c1cc3ccccc3nc1Cl)NC(=O)N2 (centres undefined) | 38.2 | > 100 | 42.4 | 45.9 | 36.8 | 61.4 | > 100 | > 100 | – | 71.6
COc1ccc(C(=O)/C=C/c2ccc(OCCCOc3ccc(/C=C/C(=O)c4ccc(OC)cc4)cc3)cc2)cc1 | > 100 | > 100 | > 100 | 72.6 | – | > 100 | > 100 | > 100 | > 100 | > 100
Clc1ccc(-c2nnc3sc4nc5ccccc5c-4nn23)c(Cl)c1 | > 100 | > 100 | > 100 | > 100 | 93.8 | – | > 100 | > 100 | > 100 | > 100
CSc1nc(SC)c2c(C#N)[nH]nc2n1 | > 100 | > 100 | > 100 | > 100 | – | > 100 | > 100 | > 100 | > 100 | > 100
O=C(O)CN1CCNCCN(CC(=O)O)CCN(CC(=O)O)CCNCC1 | > 100 | > 100 | > 100 | > 100 | > 100 | > 100 | > 100 | > 100 | – | > 100
CCCCCCCCCCCCCCCCNc1cccc2ccccc12 | > 100 | > 100 | > 100 | > 100 | – | > 100 | > 100 | > 100 | > 100 | > 100
COc1cc2c(cc1OC)C1C3CCCCC3CCN1CC2 (centres undefined) | > 100 | > 100 | – | > 100 | – | – | > 100 | > 100 | > 100 | > 100
Cc1nc(C)c(C(=O)NNC(=O)C[N+](C)(C)C)cc1C(=O)NNC(=O)C[N+](C)(C)C | > 100 | > 100 | > 100 | > 100 | > 100 | – | > 100 | – | > 100 | –
O=C1CCC(c2ccccc2)=NN1c1nsc2ccccc12 | > 100 | > 100 | > 100 | > 100 | – | > 100 | > 100 | > 100 | > 100 | > 100
COc1cc(OC)c2c(=O)cc(-c3ccc(OC)c(OC)c3OC)oc2c1 | – | – | > 100 | > 100 | – | > 100 | > 100 | > 100 | > 100 | –
O=C(CCn1ccnc1[N+](=O)[O-])NCCCn1ccnc1[N+](=O)[O-] | > 100 | > 100 | > 100 | > 100 | > 100 | > 100 | > 100 | > 100 | – | > 100
O=C(O)c1ccccc1CC(Cc1ccc2c(c1)CCC2)C(=O)O (centres undefined) | > 100 | > 100 | > 100 | > 100 | – | > 100 | > 100 | > 100 | > 100 | > 100
C=C1C(=O)CC2C1CC(=O)/C(C)=C/CCC(C)(O)C2O (centres undefined) | 40.6 | 45.5 | > 31.2 | > 24.4 | – | > 37.9 | 8.51 | 15.7 | 17.1 | 13.8
COC(=O)C(Cc1ccc2c(c1)CCC2)Cc1ccc2c(c1)CCC2 | > 100 | > 100 | > 100 | > 100 | > 100 | > 100 | > 100 | > 100 | – | > 100

Reference: PubChem BioAssay (NCI)
